Results from patent US5034311A, “Photographic elements containing release compounds I” (Eastman Kodak Company, priority 1990, dated 1991).

Experiment: Rate of tetrazole inhibitor release from timing group compounds in micellar solution (HPLC of free inhibitor and residual timing group compound)
Format: physicochemical
Settings: inhibitor release, pH 13.5, (+10%)
Method: Rates of tetrazole release were measured for several timing group compounds which are representative of fragments that are generated by reaction of a coupler of this invention with oxidized developer during photographic processing. These solution measurements are a useful indication of photographic performance. Lower values of inhibitor release half-lives in solution correlate with greater development inhibition effects in film.
For a given measurement, 12.5 μmol of the timing group compound was dissolved in 3.2 mL of reduced Triton X-100 surfactant plus one drop glacial acetic acid plus approximately 5 mL methylene chloride (to facilitate dissolution of the timing group compound in surfactant). After methylene chloride was evaporated under partial vacuum, water (approximately 15 mL) was added and the mixture was vigorously agitated with a vortex mixer to create micelles. This miscellar solution was then diluted to 25 mL with water and mixed again. Inhibitor release kinetics were initiated by mixing 2 mL of the above micellar solution with an equal volume of an aqueous potassium hydroxide solution (0.75 mol KOH/L), producing a reaction mixture with a pH of about 13.5. At intervals, portions of the reaction mixture were quenched by the addition of 1 mL 30% aqueous acetic acid. The quenched mixture was then analyzed by high performance liquid chromatography to determine the concentrations of free inhibitor and residual timing group compound. First-order reaction rate constants were calculated from these concentration versus time data, and the reaction half-life, t1/2, was calculated with the expression t1/2 =0.693/k, where k is the observed rate constant. […] In the following table -INH signifies the inhibitor of the structure

| Half-Life at pH 13.5 | Structure (SMILES) |
| --- | --- |
| 15 sec | CCCCCCCOc1ccc(-c2nnn(C3CCCc4cc(O)ccc43)n2)cc1 (stereo not drawn) |
| 100 sec | CCCCCCCOc1ccc(-c2nnn(C3c4ccc(O)cc4CCC3(C)C)n2)cc1 (stereo not drawn) |
| 250 sec | CCCCCCCOc1ccc(-c2nnn(C3CCCCc4cc(O)ccc43)n2)cc1 (stereo not drawn) |
| 9 sec | CCCCCCCOc1ccc(-c2nnn(C3CCOc4cc(O)ccc43)n2)cc1 (stereo not drawn) |
| 30 sec | CCCCCCCOc1ccc(-c2nnn(C3CCc4cc(O)ccc43)n2)cc1 (stereo not drawn) |
| 29,000 sec | CCCCCCCOc1ccc(-c2nnn(Cc3ccc(O)cc3)n2)cc1 [reference compound] |
